Source: publication PMC9386018, “A lymphatic-absorbed multi-targeted kinase inhibitor for myelofibrosis therapy” (Nature Communications, 2022)

Columns and labels:
[1] = tested on: MPL^W515L mouse model of myelofibrosis; assay: MPL^W515L MF mouse model: immune cell numbers in spleen; assay type: in vivo; conditions: MPL^W515L mice, oral 400 mg kg^−1 daily, 28 d
Procedure: (§1) The human megakaryoblastic cell line, SET-2 (ATCC), was maintained in RPMI 1640 supplemented with 20% FBS and incubated for 16 h at 10^6 cells mL^−1 with LP-182 or vehicle (DMSO; dimethyl sulfoxide), then washed in ice-cold PBS, and collected for flow cytometry analysis. Single-cell suspensions of mouse spleen were prepared from MPL^W515L MF mice (below) in RPMI 1640 supplemented with 5% FCS. Red blood cells were lysed by ammonium chloride-mediated red cell lysis (RCL) buffer and passed through a nylon mesh, and then cells were counted. For intracellular phospho-protein staining, SET-2 or spleen cells were fixed and then permeabilized using BD Phospho-flow fixation buffer and Perm-Buffer III (BD biosciences) according to the manufacturer’s protocol. Intracellular phospho-protein staining was performed using fluorochrome-conjugated antibodies, pAKT (pS473)-Alexa Fluor 647 (MB89-61) or pERK1/2 (pT202/pY204)-Alexa Fluor 647 (20 A). […] Flow cytometry was performed on a FACS Fortessa (Becton, Dickinson and Co.) using FACSDiVa software, and data analyzed using FlowJo software (Tree Star). […]
(§2) Generation of the MPL^W515L mutant MF mouse model was similar to previously described methods. […] Development of MF was evaluated by spleen volumes using MRI beginning ~14 d following bone marrow transplantation (BMT) as outlined below, continuing weekly until end of the study. […]

[2] = tested on: pAKT (pS473) in splenocytes; assay: MPL^W515L MF mouse model: pAKT in splenocytes by flow cytometry; assay type: in vivo; conditions: MPL^W515L mice, oral 400 mg kg^−1 daily, 28 d
Procedure: as §1, §2

[3] = tested on: phosphorylated AKT (pAKT; pS473) in SET-2 cells; assay: Phospho-flow cytometry of pAKT in SET-2 cells; assay type: cell-based, human; conditions: 5 μM, 16 h
Procedure: as §1, with “A). All phospho-flow antibodies were purchased from BD Biosciences.” for “A).”

O=C(NOCCOCCOCCOCCC(=O)N1CCN(c2cnc3ccc(-c4cnc(Cl)c(NS(=O)(=O)c5ccc(F)cc5)c4)cc3n2)CC1)c1ccc(F)c(F)c1Nc1ccc(I)cc1F [LP-182, N-(2-(2-(2-(3-(4-(7-(6-chloro-5-((4-fluorophenyl)sulfonamido)pyridin-3-yl)quinoxalin-2-yl)piperazin-1-yl)-3-oxopropoxy)ethoxy)ethoxy)ethoxy)-3,4-difluoro-2-((2-fluoro-4-iodophenyl)amino)benzamide]
cell numbers of neutrophils (Neu) and megakaryocytes (MK) in the spleen [1]: decreased cell numbers
active AKT level in splenocytes [2]: reduced active AKT and ERK1/2 levels to those comparable to healthy control mice
decrease of downstream activation of AKT [3]: ~ 50%
